From patent publication US20220288051A1, “METHODS FOR TREATING CANCER USING SERIAL ADMINISTRATION OF E3 UBIQUITIN LIGASE DEGRADERS” (Dana-Farber Cancer Institute, Inc., priority 2019, published 2022)

Tests used:
[1] = test system: MM.1S cells; assay: CTG viability of CRISPR-edited MM.1S pools tolerant to bortezomib or JQ1; assay type: cell-based, human; conditions: after genome-scale gene editing and treatment with JQ1 (500 nM) or bortezomib (25 nM)
Experimental: Cell viability and growth of human MM cell lines were assessed using CellTitre-Glo (CTG) assay (Promega, Madison, Wis.) per kit instructions, or CS-BLI as described (Delmore et al., 2011). Briefly, cells were seeded (5×10^3 cells/well) into 96- or 384-well opaque plates, in supplemented media (40 or 50 uL) and incubated for 24 h prior to addition of drug. For co-culture experiments, HS27A cells were pre-seeded (5×10^3 cells/well) into each well in media prior (24 h) to the addition of MM cells. At each time point (24 h, 48 h, and/or 72 h) CTG reagent (10% volume) was added to each well, and plates were read using a microplate reader (BioTek Synergy 2, BioTek, Winooski, Va.).
(§1) iii. […] Following treatments, all cells were serially cultured without drug and allowed to regrow for as long as required to enable reseeding (60×10^6 cells per flask, 100 mL) and retreatment with individual drugs while maintaining ˜1000× coverage throughout. Concomitant with retreatment, remaining cells were frozen (−80° C.; 20% FBS/DMSO) for later analysis or assessed for drug resistance/sensitivity using CTG assays. Between treatments, and in order to maintain the health of cultures, dead cells were periodically removed using Ficoll centrifugation (1,500 rpm for 10-20 min). For all CRISPR drug treatment experiments, aliquots of MM.1S-Cas9+ cells transduced with the GeCKO(Sanjana et al., 2014; Shalem et al., 2014) or Brunello (Doench et al., 2016) sgRNA libraries were frozen immediately prior to experimentation to determine the baseline distribution of sgRNAs in the cell population.

[2] = test system: c-Myc; assay: Immunoblotting of degronimid-treated MM.1S cells: c-Myc; assay type: cell-based, human; conditions: 0.01-1 μM, 4 h
Experimental: MM.1S cells were seeded in 6-well plates at 3×10^6 cells/well (˜24 h prior to addition of drug). […] Cell pellets were thawed on ice, lysed using RIPA buffer (ThermoFisher) with protease/phosphatase inhibitor cocktail (Cell Signal Technology, Danvers, Mass.) by incubating on ice 30 min. The lysates were clarified by spinning at 10,000 g for 10 min at 4° C. and the concentration of the lysate was determined using BCA protocol (ThermoFisher). Samples were prepared for Western blot using LDS sample buffer (NuPage, Invitrogen, Carlsbad, Calif., USA) with sample reducing agent (NuPage, Invitrogen) and heated to 95° C. for 5 min. Samples were loaded (20 ug/sample) into Tris-acetate or Bis-Tris gels (NuPage, Invitrogen) and run as per kit instructions using appropriate running buffers. Gels were transferred as described (Matthews et al., 2015) onto PVDF membrane using SDS-based transfer buffer (NuPage, Invitrogen). Membranes were blocked (5% skim milk; or 5% bovine serum albumin in TBS-T) for at least 30 min then probed with primary antibodies overnight (4° C.). […] Each protein of interest (BRD2, BRD3, BRD4, c-myc and CDK9) was assessed in a separate gel and corresponding membrane (which was simultaneously incubated with antibodies for both the target protein of interest and GAPDH, to provide a loading control within the same blot). […]

[3] = test system: MM; conditions: cited from earlier work
[4] = test system: pools of MM cells; assay: Sequential exposure to CRBN- and VHL-based degraders, CTG; assay type: cell-based, human; conditions: compared to treatment-naïve cells
Text: We addressed this question using pools of MM cells derived from several of our genome-scale CRISPR-based screens.

[5] = test system: MM.1S-Cas9+ cells; assay: Genome-scale CRISPR/Cas9 gene editing (LOF) resistance screens; assay type: cell-based, human; conditions: long-term treatment; NGS of sgRNAs
Experimental: MM.1S cells transduced with lentiviral construct for SpCas9 were kindly provided from Quinlan Sievers (Ebert Lab, BWH/DFCI). MM.1S cells were also transduced with lentiviral construct for dCas9-VP64 (purchased from Addgene).
ii. Lentiviral transductions with sgRNA libraries: For the screen with the GECKOv2 sgRNA library, tumor cell transductions were performed in batches of 8×10^7 cells per sub-library for each replicate. Cells were incubated for 16 hrs in cell medium containing polybrene (2 μg/mL; Santa Cruz Biotechnology), 10 mM HEPES (pH 7.4) (Sigma-Aldrich) and viral prep (4 mL) diluted to achieve an MOI of 0.4. After the end of the incubation with the viral preps, cells were washed and incubated for an additional day. Transduced cells were cultured at an initial density of 1×10^6 cells/mL and were treated with puromycin (1 μg/mL) for up to 14 days immediately after transduction. After puromycin selection, MM.1S-Cas9^+ cells transduced with each GeCKOv2 sublibrary were plated at 60×10^6 cells per flask (T175, 100 mL) to enable coverage of ˜1000× and were sub-cultured at four to five-day intervals to prevent confluence. At each passage, cells were harvested, washed with PBS (Corning, N.Y.), pelleted (5000 rpm, 5 min, 4° C.) and frozen as cell pellets (−80° C.) for next generation sequencing, and also replated at 60×10^6 cells to maintain 1000× coverage.
For the genome-scale screens with the Brunello sgRNA library, tumor cell transductions were performed in batches of 5×10^7 cells per library for six replicates. Cells were incubated (18 h) in cell medium containing polybrene (5 μg/mL; Santa Cruz Biotechnology), 10 mM HEPES (pH 7.4) (Sigma-Aldrich) and viral prep (30 mL) diluted 1:1. Transduced cells were cultured at an initial density of 1×10^6 cells/mL and were treated with puromycin (1 μg/mL) for up to 5 days additional two days from transduction. After stable transduction, pooled MM.1S cells were plated at 40×10^6 cells per flask (T175, 100 mL) to enable coverage of 500× and were sub-cultured at three- to four day intervals to prevent confluence. At each passage, cells were harvested, washed with PBS (Corning), pelleted (5000 rpm, 5 min, 4° C.) and frozen as cell pellets (−80° C.) for next generation sequencing, and also replated at 40×10^6 cells (˜500× coverage).
as §1
For “long-term” treatment screens with Thal-SNS-032-, ARV-771- and MZ-1-resistant cells, we continuously treated MM.1S-Cas9+ cells (40×10^6, —500× coverage) transduced with the Brunello sgRNA library (4 weeks post-puromycin selection) with either each compound's (IC20) or vehicle control. Cells were serially passaged every 3-4 days to prevent confluence, each time replating at ˜500× coverage (100 mL) at the same time replenishing each compound or vehicle. Drug treatments were paused if cell numbers fell below 10×10^6 per flask, allowing cells to recover and regrow, and treatments were resumed at a lower concentration when cell numbers reached 40×10^6. At each passage, cells were assayed for drug sensitivity/resistance using CTG. […]

[6] = test system: MM.1S Cas9+ cells; assay: Dose-response assay of cells with individual sgRNA knock-outs, CTG; assay type: cell-based, human; conditions: compared to parental MM.1S cells
Experimental: Non-targeting control sgRNAs and COPS7B sgRNAs were from GeCKOv2. Four sgRNAs were generated per each gene, except from COPS7B, for which 6 sgRNAs were available (Table S2). All sgRNAs were synthesized by CustomArray Inc (Bothell, Wash.). Cloning was performed according to the protocol published by Zhang et al. (media.addgene.org/cms/filer_public/4f/ab/4fabc269-56e2-4ba5-92bd-09dc89c1e862/zhang_lenticrisprv2_and_lentiguide_oligo_cloning_protocol_1.pdf) using a pHKO9 vector. Briefly, to clone the sgRNA guide sequence, plasmids were digested with BsmBI (New England Biolabs, Ipswich, Mass.) at 55° C. for 1 hour. Oligonucleotides for each sgRNA guide sequence were annealed and phosphorylated using T4 Ligation Buffer and T4 polynucleotide kinase (New England Biolabs) at 37° C. for 30 minutes and then annealed by heating to 95° C. for 5 minutes and cooling to 25° C. at 1.5° C./minute. Using T4 ligation buffer and T4 ligase (New England Biolabs), annealed oligos were ligated into gel purified vectors (Qiagen) at 65° C. for 10 minutes. 2.5 ug of the ligation product were transformed in 30 uL E. coli electrocompetent cells (Lucigen E.cloni 10 G ELITE PLUS, Invitrogen). Subsequently, 500 uL of transformed cells were plated on LB Agar-AmpR (ThermoFisher Scientific) and incubated overnight at 37° C. Three colonies per plate were then picked and inoculated in a mini-prep culture (Qiagen). The product was then digested with BsmBI and XhoI (New England Biolabs) at 37° C. for 1 h and compared to the uncut control on 1% agarose gel. One out of three colonies (10 uL) was then precultured in 3 mL LB Broth-AmpR and shaken at 37° C. for 6 h. Afterwards it was transferred to a 250 mL LB Broth-AmpR flask and incubated overnight at 37° C. Each culture was then inoculated into a maxiprep culture (Qiagen).
Also, CRBN, VHL, TCEBJ, TCEB2, UBE2R2 and FBXW2 sgRNA are selected from Brunello library and cloned using pLVX-hyg-sgRNA1 Vector system (Takara Bio USA, CA) according to the manufacturer's manual. b(takarabio.com/assets/documents/User %20Manual/Lenti-X_CRISPR-Cas9_System_User_Manual_121316.pdf)
ii. Lentiviral transductions with constructs for individual sgRNAs: 500×10^3 to 1×10^6 MM.1S Cas9 cells were plated in 50 uL of complete RPMI1640 medium per well in a 24-well plate, and additional 100 uL of complete RPMI1640 medium were added to cover the well completely. Cells were incubated in cell medium containing polybrene (5 to 8 μg/mL; Santa Cruz Biotechnology), and viral prep. 24 hours after addition of viral preps, media were changed and, after another 48 h, puromycin selection (1 to 2 ug/ml per well) was started. After 7 days of puromycin selection, transduced MM.1S Cas9+ cells were collected and expanded in T75 flasks.
iii. […] In the case of Thal-SNS-032 or ARV771, cells are plated 384-well plate and treated each concentration described at figure and viability assays were performed at 72 hrs.

Row | Compound | responsiveness of drug-exposed pools to the same agent [1] | c-Myc protein levels [2] | induction of apoptosis ([3]; most cell types tested) | anti-tumor activity ([3]; preclinical in vitro and in vivo models of MM) | shift of dose response curve in pools previously exposed to CRBN-based degraders [4] | sgRNA enrichment in resistant cells, long-term screen [5] | response of cells with sgRNAs against COPS7B or COPS8 [6]
1 | Cc1sc2c(c1C)C(c1ccc(Cl)cc1)=N[C@@H](CC(=O)OC(C)(C)C)c1nnc(C)n1-2 [JQ1] | decreased responsiveness | less pronounced depletion of c-Myc | does not induce apoptosis in most cell types tested | has anti-tumor activity |  |  | 
2 | Cc1ncsc1-c1ccc(CNC(=O)[C@@H]2C[C@@H](O)CN2C(=O)[C@@H](NC(=O)COCCOCCOCCNC(=O)C[C@@H]2N=C(c3ccc(Cl)cc3)c3c(sc(C)c3C)-n3c(C)nnc32)C(C)(C)C)cc1 [MZ-1] |  |  |  |  | limited, if any, shift | enrichment of sgRNAs for CUL2, VHL itself | decreased response
3 | CC(C)C[C@H](NC(=O)[C@H](Cc1ccccc1)NC(=O)c1cnccn1)B(O)O [bortezomib] | decreased responsiveness |  |  |  |  |  | 
